Assay results: publication PMC8470702 (Pharmaceuticals, 2021)
Where “and” joins values, the source holds several entries; their conditions need not be identical. Identical values can stand only once.

What was measured:
Daudi cells = assay: Cytotoxicity assay (MTT), 72 h; type: cell-based, human; conditions: for IC50: Homo sapiens, Daudi, 72 h of treatment, MTT; for Selectivity index Daudi: IC50 of normal (BALB/3T3) vs. cancer cells (Daudi)
Description: (§1) Then, the tested compounds were diluted in culture medium (RPMI1640 + OptiMEM) to reach the final concentrations. Then, cells were treated for 72 h with derivatives at concentrations of […] (100 μL of each concentration per well), or with culture medium alone as a cells control or medium control.
(§2) Each compound in each concentration was tested in triplicate in a single experiment, which was repeated 3–5 times.
(§3) MTT: 20 µL MTT solution (5 mg/mL of PBS, Merck) was added to wells and plates were placed in an incubator. […] The optical density of individual samples was read at a wavelength of 570 nm using a plate reader (Synergy H4 Hybrid Reader, BioTek).

MV4-11 cells = assay: Cytotoxicity assay (MTT), 72 h; type: cell-based, human; conditions: for IC50: Homo sapiens, MV4-11, 72 h of treatment, MTT; for Selectivity index MV4-11: IC50 of normal (BALB/3T3) vs. cancer cells (MV4-11)
Description: as §1, §2, §3

[1] = tested on: HDAC homologues (HDACs), HeLa cell extract; assay: Fluorimetric HDACs inhibition kit (Histone Deacetylase Activity Assay, HeLa cell extract); conditions: for HDAC activity at 2 µM [%]: remaining HDACs activity at 2 µM compound; for IC50: read-out: Inhibition of HDAC homologues (HDACs) IC50
Description: The HDACAA kit is based on a two-step enzymatic reaction. The substrate for the reaction is a substituted peptide with an acetylated lysine residue and a bound fluorescent group. The first step of the reaction is deacetylation of the acetylated lysine side chain by the HDAC containing sample (HeLa cell extract). The second step is the cleavage of the deacetylated substrate with the developer solution and the release of the free highly fluorescent group. […] The plate was incubated at 30 °C for 30 min. Next, 10 µL of Developer Solution was added to each well and incubated at room temperature for 10 min. The fluorescence was measured with the fluorimeter plate reader (SpectraMax iD3, Molecular Devices): excitation wavelength of 360 nm and emission wavelength of 460 nm. The following concentrations were used: 0.1, 0.5, 1, and 2 µM. Each compound in each concentration was tested in triplicate. All calculations were performed using Origin 9.0 software.

HDAC8 = target: T1, HDAC8 (Homo sapiens, UniProt Q9BY41); assay: Histone Deacetylase 8 Activity Assay; type: biochemical; conditions: read-out: Inhibition of HDAC8 activity IC50
T1 construct: purchased Sigma
T1 sequence (Q9BY41 1-377): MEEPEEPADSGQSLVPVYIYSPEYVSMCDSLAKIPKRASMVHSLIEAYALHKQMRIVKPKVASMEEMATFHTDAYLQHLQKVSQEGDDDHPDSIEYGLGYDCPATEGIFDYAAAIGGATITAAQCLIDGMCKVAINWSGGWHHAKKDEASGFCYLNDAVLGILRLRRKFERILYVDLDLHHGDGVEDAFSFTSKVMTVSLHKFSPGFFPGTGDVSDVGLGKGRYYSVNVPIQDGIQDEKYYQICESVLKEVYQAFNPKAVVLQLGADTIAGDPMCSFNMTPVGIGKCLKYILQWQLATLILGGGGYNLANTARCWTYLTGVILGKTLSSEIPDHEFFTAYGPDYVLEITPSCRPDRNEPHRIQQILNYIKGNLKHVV
Description: In order to measure histone deacetylase 8 activity, Histone Deacetylase 8 Activity Assay (Sigma) was used. The HDAC8 acts with the supplied Developer to deacetylate and then cleave the HDAC8 Substrate (R-H-K(Ac)-K(Ac)-AFC). The reaction reagents were added to the wells of a 96-well plate according to Table 7. […] The fluorescence was measured with the fluorimeter plate reader: excitation wave-length of 380 nm and emission wavelength of 500 nm. The following concentrations were used: 0.5, 1, 1.5, 2, 3, and 4 µM. Each compound in each concentration was tested in triplicate. All calculations were performed using Origin 9.0 software.

A549 cells = assay: Cytotoxicity assay (SRB), 72 h; type: cell-based, human; conditions: for IC50: Homo sapiens, A549, 72 h of treatment, SRB; for Selectivity index A549: IC50 of normal (BALB/3T3) vs. cancer cells (A549)
Description: as §1, §2
(§4) SRB: 50 µL 50% cold trichloroacetic acid (TCA, Merck) solution was added to each wells and incubated for 1 h at 4 °C. The plates were rinsed with distilled water, and after drying on a paper towel, 50 µL of a 0.1% (w/v) solution of sulforodamine B (Merck) in 1% acetic acid (POCH, Poland) was added and incubated for 30 min at room temperature. Subsequently, the plates were washed with 1% (v/v) acetic acid and after desiccation of excess acid, 150 µL of 10 mM TRIS (Merck) was added. After another 30 min of incubation at RT, the optical density of individual samples was read at 540 nm using a plate reader (Synergy H4 Hybrid Reader, BioTek).

MCF-7 cells = assay: Cytotoxicity assay (SRB), 72 h; type: cell-based, human; conditions: for IC50: Homo sapiens, MCF7, 72 h of treatment, SRB; for Selectivity index MCF-7: IC50 of normal (BALB/3T3) vs. cancer cells (MCF-7)
Description: as §1, §2, §4

BALB/3T3 cells = assay: Cytotoxicity assay (SRB), 72 h; conditions: Mus musculus, BALB/3T3, 72 h, read-out: IC50 BALB/3T3
Description: Then, the tested compounds were diluted in culture medium (RPMI1640 + OptiMEM) to reach the final concentrations. Then, cells were treated for 72 h with derivatives at concentrations of 50, 10, 2, 0.4, and 0.008 µM (100 μL of each concentration per well), or with culture medium alone as a cells control or medium control.

Row | SMILES | IC50 (Daudi cells) | IC50 (MV4-11 cells) | melting point | HDAC activity at 2 µM [%] [1] | IC50 (HDAC8) | IC50 [1] | Selectivity index Daudi (Daudi cells) | Selectivity index MV4-11 (MV4-11 cells) | IC50 (A549 cells) | Selectivity index A549 (A549 cells) | IC50 (MCF-7 cells) | Selectivity index MCF-7 (MCF-7 cells) | IC50 (BALB/3T3 cells)
1 | CN1C(=O)c2ccccc2N(CC(=O)NO)C(=O)c2ccccc21 [Compound 7a] | > 50 µM | > 50 µM | 233 to 234 °C | 95.6 ± 1.4% | – | – | – | – | – | – | – | – | –
2 | CN1C(=O)c2ccccc2N(CCC(=O)NO)C(=O)c2ccccc21 [Compound 7b] | > 50 µM | > 50 µM | 105 to 106 °C | 84.1 ± 2.3% | – | – | – | – | – | – | – | – | –
3 | CN1C(=O)c2ccccc2N(CCCC(=O)NO)C(=O)c2ccccc21 [Compound 7c] | > 50 µM | > 50 µM | 190 to 191 °C | 75.4 ± 3.0% | – | – | – | – | – | – | – | – | –
4 | CN1C(=O)c2ccccc2N(CCCCC(=O)NO)C(=O)c2ccccc21 [Compound 7d] | 9.6 ± 2.1 µM | 7.58 ± 2.5 µM | 217 to 218 °C | 64.6 ± 3.6% | – | – | – | – | – | – | – | – | –
5 | CN1C(=O)c2ccccc2N(CCCCCC(=O)NO)C(=O)c2ccccc21 [Compound 7e] | 3.03 ± 0.55 µM | 2.33 ± 0.64 µM | 155 to 156 °C | 48.7 ± 1.0% | 5.67 ± 0.64 µM | 1.96 ± 0.105 µM | – | – | – | – | – | – | –
6 | CN1C(=O)c2ccccc2N(CCCCCCC(=O)NO)C(=O)c2ccccc21 [Compound 7f] | 4.83 ± 1.96 µM | 4.45 ± 0.34 µM | 145 to 146 °C | 66.1 ± 4.1% | – | – | – | – | – | – | – | – | –
7 | O=C(CN1C(=O)c2ccccc2C=Cc2ccccc21)NO [Compound 7g] | 17.3 ± 6.2 µM | 34 ± 0.75 µM | 119 to 120 °C | 83.6 ± 4.2% | – | – | – | – | – | – | – | – | –
8 | O=C(CCN1C(=O)c2ccccc2C=Cc2ccccc21)NO [Compound 7h] | 32.6 ± 4.78 µM | > 50 µM | 173 to 174 °C | 87.5 ± 1.2% | – | – | – | – | – | – | – | – | –
9 | O=C(CCCN1C(=O)c2ccccc2C=Cc2ccccc21)NO [Compound 7i] | > 50 µM | > 50 µM | 172 to 173 °C | 90.4 ± 1.6% | – | – | – | – | – | – | – | – | –
10 | O=C(CCCCN1C(=O)c2ccccc2C=Cc2ccccc21)NO [Compound 7j] | 3.47 ± 0.66 µM | 5.3 ± 1.36 µM | 175 to 176 °C | 63.3 ± 0.5% | – | – | – | – | – | – | – | – | –
11 | O=C(CCCCCN1C(=O)c2ccccc2C=Cc2ccccc21)NO [Compound 7k] | 0.46 ± 0.122 µM | 0.22 ± 0.021 µM | – | 15.7 ± 1.3% | 3.37 ± 0.33 µM | 0.183 ± 0.015 µM | 2.78 | 5.82 | 1.27 ± 0.42 µM | 1.01 | 0.618 ± 0.095 µM | 2.07 | 1.28 ± 0.15 µM
12 | O=C(CCCCCCN1C(=O)c2ccccc2C=Cc2ccccc21)NO [Compound 7l] | 1.44 ± 0.61 µM | 1.57 ± 0.12 µM | 151 to 152 °C | 44.7 ± 4.4% | – | 1.24 ± 0.155 µM | – | – | – | – | – | – | –
13 | CN1C(=O)c2ccccc2C(=O)N(CCCCCC(=O)NO)c2ccccc21 [Compound 7m] | 5.09 ± 0.3 µM | 4.45 ± 0.96 µM | 95 to 96 °C | 72.7 ± 5.2% | – | – | – | – | – | – | – | – | –
14 | CN1C(=O)c2cc(Cl)c(Cl)cc2C(=O)N(CCCCCC(=O)NO)c2ccccc21 [Compound 7n] | 2.56 ± 0.98 µM | 2.85 ± 0.34 µM | 104 to 105 °C | 68.3 ± 2.8% | – | – | – | – | – | – | – | – | –
15 | O=C(CCCCCN1C(=O)c2ccccc2C(=O)N(Cc2ccccc2)c2ccccc21)NO [Compound 7o] | 3.52 ± 0.8 µM | 3.55 ± 0.75 µM | 172 to 173 °C | 64.5 ± 2.1% | – | – | – | – | – | – | – | – | –
16 | O=C(CCCCCN1C(=O)c2ccccc2CCc2ccccc21)NO [Compound 7p] | 0.318 ± 0.098 µM | 0.2 ± 0.073 µM | 164 to 165 °C | 21.5 ± 1.6% | 3.14 ± 0.42 µM | 0.309 ± 0.035 µM | 3.27 | 5.20 | 1.21 ± 0.24 µM | 0.86 | 0.661 ± 0.12 µM | 1.57 | 1.04 ± 0.28 µM
17 | CN1C(=O)c2cc(Br)ccc2N(CCCCCC(=O)NO)C(=O)c2ccccc21 [Compound 7r] | 0.785 ± 0.246 µM | 0.603 ± 0.132 µM | 76 to 77 °C | 31.5 ± 7.1% | – | 0.875 µM and 0.914 µM | 4.29 | 5.59 | 4.61 ± 0.38 µM | 0.73 | 2.72 ± 0.57 µM | 1.24 | 3.37 ± 0.87 µM
18 | COc1cc2c(cc1OC)N(CCCCCC(=O)NO)C(=O)c1ccccc1N(C)C2=O [Compound 7s] | 0.944 ± 0.167 µM | 0.692 ± 0.11 µM | 82 to 83 °C | 35.9 ± 0.8% | – | 0.914 µM and 0.875 µM | 12.75 | 17.4 | 18 ± 5.77 µM | 0.67 | 4.24 ± 1.03 µM | 2.84 | 12 ± 5.9 µM
19 | CN1C(=O)c2cc3ccccc3cc2N(CCCCCC(=O)NO)C(=O)c2cc(Cl)ccc21 [Compound 7t] | 0.137 ± 0.04 µM | 0.093 ± 0.009 µM | 161 to 162 °C | 19.9 ± 1.6% | 1.95 ± 0.17 µM | 0.266 ± 0.014 µM | 5.04 | 7.42 | 1.05 ± 0.07 µM | 0.66 | 0.368 ± 0.015 µM | 1.88 | 0.69 ± 0.05 µM
